Reference: patent US8012995B1, “Pharmaceutically active sulfonamide derivatives” (Merck Serono SA, priority 1999, dated 2011)

Assays:
JNK3 = JNK3 (Homo sapiens, UniProt P53779); test: JNK3 in vitro assay (SPA, GST-c-Jun phosphorylation); format: biochemical; conditions: amount necessary to achieve 50% inhibition, GST-c-Jun substrate
Procedure: (§1) JNK 2 and 3 in vitro assays: JNK3 and/or 2 assays are performed in 96 well MTT plates, by incubation of 0.5 μg of recombinant pre-activated GST-JNK or GST-JNK2 with 1 μg of recombinant, biotinylated GST-c-Jun and 2 μM ^33γ-ATP (2 nCi/μl), in the to presence or absence of sulfonamide inhibitors if formula I and in a reaction volume of 50 μl containing 50 mM Tris-HCl, pH 8.0; 10 mM MgCl2; 1 mM Dithiothreitol, and 100 μM NaVO4. The incubation is performed for 120 min. at R.T and stopped upon addition of 200 μl of a solution containing 250 μg of Streptavidine-coated SPA beads (Amersham, Inc.)^•, 5 mM EDTA, 0.1% Triton X-100 and 50 μM ATP, in phosphate saline buffer. After incubation for 60 minutes at RT, beads are sedimented by centrifugation at 1500×g for 5 minutes, resuspended in 200 μl of PBS containing 5 mM EDTA, 0.1% Triton X-100 and 50 μM ATP and the radioactivity measured in a scintillation β counter, following sedimentation of the beads as described above. By substituting GST-c Jun for biotinylated GST-1ATF2 or myelin basic protein, this assay can be used to measure inhibition of preactivated p38 and ERK MAP Kinases, respectively.
(§2) The values indicated in respect of JNK2 and 3, p38 and ERK2 refer to the IC50 (μM), i.e. the amount necessary to achieve 50% inhibition of said target (e.g. JNK2). From the above table it could be derived that said test compounds according to formula I do have a significant effect both on JNK2 and 3, but virtually no effect onto p38 and ERK2, thus delivering a quite selective inhibitory effect.

p38 = p38 (Homo sapiens, UniProt Q16539); test: p38 in vitro kinase assay (SPA, GST-ATF2 substrate); format: biochemical; conditions: amount necessary to achieve 50% inhibition
Procedure: as §1, §2

ERK2 = ERK2 (Homo sapiens, UniProt P28482); test: ERK2 in vitro kinase assay (SPA, myelin basic protein substrate); format: biochemical; conditions: amount necessary to achieve 50% inhibition
Procedure: as §1, §2

Hlr c-Jun HeLa cells = test: C-Jun reporter assay (Dual-Luciferase); format: cell-based; conditions: Homo sapiens, Hlr c-Jun HeLa cells transfected with pMEKK1
Procedure: Hlr c-Jun HeLa cells are cultured in DMEM High Glc supplemented with 10% FCS (Sigma), 2 mM Glutamine (Gibco), P/S, Hygromycin b 100 μg/mL and G418 250 μg/mL
The cell suspension are diluted with medium to give about 3.5×10^6 cells/mL and 1 mL of cell suspension are put onto 2 10 cm culture dishes containing 9 mL of culture medium.
• Control: 0.2 μg pTK Renilla, 5.8 μg pBluescript KS, 500 μl OPTIMEM (GIBCO), 18 μl Fugene 6 • Induced: 0.1 μg pMEKK1, 0.2 μg pTK Renilla, 5.7 μg pBluescript KS, 500 μl OPTIMEM (GIBCO), 18 μl Fugene 6 30′ RT
The transfection mixture is added to the plated cells. The plates are incubated over night at 37° C. in a humidified atmosphere of 5% CO2 in air
A 96 wells plate containing 100 μl of culture medium per well is prepared
Negative control (vehicle): 2 μl of DMSO is added to the 100 μl (in triplicate).
Compound: 2 μl of Hit compound stock dilution are added to the 100 μl (in triplicate).
The transfected cells are trypsinised and ressuspend in 12 mL of culture medium.
100 μl of the dilution are added to each of the 96 wells plate.
The plate is incubated over night at 37° C. in a humidified atmosphere of 5% CO2 in air
Dual-Luciferase™ Reporter Assay System (Promega)
The medium is removed from the plate and the cells washed two times with 100 μl PBS Completely remove the rinse solution before applying PLB reagent. Dispense into each culture well […] of 1×PLB. Place the culture plates on a rocking platform or orbital shaker with gentle
rocking/shaking to ensure complete and even coverage of the cell monolayer with 1×PLB. Rock the culture plates at room temperature for 15 minutes. Transfer 20 μl of the lysate into a white opaque 96 wells plate. Read in a luminometer.
• Inject 50 μl of Luciferase Assay Reagent II wait 5″, read 10″ • Inject 50 μl of Stop & Glo® Reagent wait 5″, read 10″ Check RLU Luciferase/RLU Renilla *1000

JNK2 = JNK2 (Homo sapiens, UniProt P45984); test: JNK2 in vitro assay (SPA, GST-c-Jun phosphorylation); format: biochemical; conditions: amount necessary to achieve 50% inhibition, GST-c-Jun substrate
Procedure: as §1, §2

[1] = tested on: IL-2 release by PMA+Iono-stimulated Jurkat cells; test: IL-2 release assay (ELISA); format: cell-based; conditions: Homo sapiens, PMA+Ionomycine-stimulated Jurkat cells, 24 hours, read-out: % Inhibition of IL2 Production @3 uM
Procedure: Jurkat cells, a human T cell leukemia cell line (American Type Culture Collection # TIB 152) were cultured in RPMI 1640 medium (Gibco, BRL) supplemented with 10% of […] FCS, Glutamine and Penstrep. The cell suspension in the medium is diluted to give 2.10^6 cells/mL. The cells were plated (2.10^5 cells/well) on a 96-well plate containing different concentration of test compound (final concentration of compounds, 10, 3, 1, […], 0.1 μM). This mixture is incubated 30 minutes at 37° C. in a humidified CO2 atmosphere. Cells were then treated with 10 ul PMA+Ionomycine (0.1 μM and 1 μM final concentration) in all wells except negative control. In wells without compounds, 10 μl of RPMI 2% DMSO (=0.1% final) is added. Cells are incubated 24 hours at 37° C. and then the supernatant harvested (freeze at −20° C. if not used the same day) prior to performing IL-2 ELISA test on the supernatant.
IL-2 release into the medium by PMA+Iono-stimulated Jurkat cells, in presence or absence of test compounds is assayed by ELISA. Following the procedure described below
Transfer 100 μl capture antibody diluted in PBS at 5 μg/mL into a 96 well ELISA plate and incubate overnight at room temperature.
Aspirate each well and wash 3 times with Wash buffer. After the last wash, damp the plate.
1. Saturate with 200 μl PBS-10% FCS. Incubate 1 hour at room temperature.
2. Repeat the wash step 2.
• 1. Add 100 μl of sample or standard ([…]) and incubate 2 hours at room temperature. • 2. Wash 3 times. • 3. Add 100 μl of biotinylated anti-human IL-2 at 12.5 ng/mL. Incubate 2 hours at room temperature. • 4. Wash 3 times. • 5. Add 100 μl streptavidin-HRP (Zymed #43-4323) at 1:10′000. Incubate 30 minutes at room temperature. • 6. Wash 3 times • 7. Add 100 μl substrate solution (citric acid/Na2HPO4 (1:1)+H2O2 1:2000+OPD). Incubate 20-30 minutes at room temperature. • 8. Add 50 μl of stop solution to each well. • 9. Determine optical density using a microliter plate reader set to 450 nm with correction at 570 nm.

Sequence of JNK2 (P45984 whole entry, species assumed): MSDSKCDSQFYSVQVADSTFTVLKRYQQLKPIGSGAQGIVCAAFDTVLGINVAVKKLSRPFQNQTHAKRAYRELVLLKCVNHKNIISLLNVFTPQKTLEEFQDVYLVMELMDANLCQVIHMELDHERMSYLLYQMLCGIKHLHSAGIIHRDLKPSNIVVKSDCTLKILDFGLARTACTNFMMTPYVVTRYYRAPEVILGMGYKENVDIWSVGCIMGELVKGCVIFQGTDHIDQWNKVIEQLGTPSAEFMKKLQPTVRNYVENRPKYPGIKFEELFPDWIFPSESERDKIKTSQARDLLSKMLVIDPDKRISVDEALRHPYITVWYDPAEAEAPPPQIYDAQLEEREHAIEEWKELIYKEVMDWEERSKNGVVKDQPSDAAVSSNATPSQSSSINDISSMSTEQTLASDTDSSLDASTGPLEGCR
Sequence of JNK3 (P53779 whole entry, species assumed): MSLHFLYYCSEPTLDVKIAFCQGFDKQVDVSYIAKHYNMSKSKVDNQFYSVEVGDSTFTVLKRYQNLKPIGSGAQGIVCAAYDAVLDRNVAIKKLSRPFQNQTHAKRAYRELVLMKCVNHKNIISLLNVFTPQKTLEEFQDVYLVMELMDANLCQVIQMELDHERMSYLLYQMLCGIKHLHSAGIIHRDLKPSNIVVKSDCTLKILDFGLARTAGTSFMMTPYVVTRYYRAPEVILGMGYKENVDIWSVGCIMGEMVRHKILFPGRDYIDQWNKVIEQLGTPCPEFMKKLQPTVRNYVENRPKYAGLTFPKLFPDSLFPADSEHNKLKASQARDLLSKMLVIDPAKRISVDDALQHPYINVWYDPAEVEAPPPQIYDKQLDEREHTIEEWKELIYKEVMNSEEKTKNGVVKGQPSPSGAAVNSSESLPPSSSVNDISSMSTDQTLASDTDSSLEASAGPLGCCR
Sequence of ERK2 (P28482 whole entry, species assumed): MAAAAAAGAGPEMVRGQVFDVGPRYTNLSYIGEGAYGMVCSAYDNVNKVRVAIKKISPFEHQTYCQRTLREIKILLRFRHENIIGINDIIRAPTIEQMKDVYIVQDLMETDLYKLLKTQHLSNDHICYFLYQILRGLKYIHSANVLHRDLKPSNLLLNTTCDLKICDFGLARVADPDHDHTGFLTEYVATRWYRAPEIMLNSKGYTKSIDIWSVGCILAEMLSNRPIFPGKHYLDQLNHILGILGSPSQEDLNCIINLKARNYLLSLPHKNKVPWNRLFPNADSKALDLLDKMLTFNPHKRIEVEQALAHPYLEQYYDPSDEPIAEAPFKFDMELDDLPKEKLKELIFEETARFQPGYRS
Sequence of p38 (Q16539 whole entry): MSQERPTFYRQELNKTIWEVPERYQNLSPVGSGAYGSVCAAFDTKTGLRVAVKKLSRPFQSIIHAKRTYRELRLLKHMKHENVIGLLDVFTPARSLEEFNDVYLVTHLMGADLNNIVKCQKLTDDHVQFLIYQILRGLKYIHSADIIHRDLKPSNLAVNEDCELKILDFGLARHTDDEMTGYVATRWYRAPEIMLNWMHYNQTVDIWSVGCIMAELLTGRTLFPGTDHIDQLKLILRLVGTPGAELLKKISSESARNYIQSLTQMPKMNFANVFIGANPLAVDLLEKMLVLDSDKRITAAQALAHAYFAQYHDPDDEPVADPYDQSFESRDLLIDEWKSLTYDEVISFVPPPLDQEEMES

| SMILES | melting point [°C] | IC50 (JNK3) [nM] | IC50 (p38) [nM] | IC50 (ERK2) [nM] | inhibition at 10 µM (Hlr c-Jun HeLa cells) [%] | IC50 (JNK2) [nM] | inhibition at 3 µM [1] [%] |
| --- | --- | --- | --- | --- | --- | --- | --- |
| O=C(NCc1ccc(S(=O)(=O)N2CCC(Nc3cccc(S(=O)(=O)C(F)(F)F)c3)CC2)s1)c1ccc(Cl)cc1 [Example 2, 4-Chloro-N-{5-[4-(3-Trifluoromethanesulfonyl-phenylamino)-piperidine-1-sulfonyl]-thiophen-2-ylmethyl}-benzamide] | 198 to 199 |  |  |  |  |  |  |
| CCCc1cccc(NC2CCN(S(=O)(=O)c3ccc(CNC(=O)c4ccc(Cl)cc4)s3)CC2)c1 [Example 110, 4-chloro-N-{[5-({4-[3-propylanilino]piperidin-1-yl}sulfonyl)thien-2-yl]methyl}benzamide] | 169 to 170 | 110 | > 30000 | > 30000 | > 30 | 310 | > 30 |
